Experimental data taken from US4701455A, “Biopterin analogs” (Burroughs Wellcome Co., priority 1983, dated 1987).

Experiments:
Type in all cases: biochemical
Tryptophan hydroxylase = target: T1, Tryptophan hydroxylase (Rattus norvegicus, UniProt Q8CGU9); assay: Tryptophan hydroxylase cofactor assay; conditions: relative to tetrahydrobiopterin = 100
T1 construct: crude 30,000×g supernatant; from tissue
T1 sequence (Q8CGU9 1-485): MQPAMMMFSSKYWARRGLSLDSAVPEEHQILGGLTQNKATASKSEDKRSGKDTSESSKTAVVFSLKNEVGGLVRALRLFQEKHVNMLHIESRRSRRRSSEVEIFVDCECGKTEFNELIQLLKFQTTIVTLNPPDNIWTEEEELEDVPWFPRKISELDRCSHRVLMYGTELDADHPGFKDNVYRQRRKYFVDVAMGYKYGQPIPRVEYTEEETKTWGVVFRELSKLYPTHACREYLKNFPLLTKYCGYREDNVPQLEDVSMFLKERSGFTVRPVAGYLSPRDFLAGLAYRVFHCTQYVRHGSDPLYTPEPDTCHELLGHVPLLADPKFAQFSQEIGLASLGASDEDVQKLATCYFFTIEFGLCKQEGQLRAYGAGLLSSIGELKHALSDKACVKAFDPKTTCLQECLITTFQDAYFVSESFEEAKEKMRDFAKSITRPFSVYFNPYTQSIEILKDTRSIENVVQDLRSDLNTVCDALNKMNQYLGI
Method: Trytophan hydroxylase was assayed according to a modification of the method of Renson J., et al (Biochem. Biophys. Acta 25: 504 (1966)). The preparation of tryptophan hydroxylase was a crude 30,000×g supernatant which had been desalted on a Sephadex G-25 (Trade Name) column (Boadle-Biker, M.C., Biochem Pharmacol. 28: 2129 (1979).

[1] = test system: Dihydropteridine reductase; assay: Dihydropteridine reductase assay; conditions: quinonoid dihydro form; relative to tetrahydrobiopterin form = 100
Method: Dihydropteridine reductase was assayed by the method of Craine, et al., (J. Biol. Chem., 247, 6082 (1972)).

Tyrosine hydroxylase = Tyrosine hydroxylase (Homo sapiens, UniProt P07101); assay: Tyrosine hydroxylase cofactor assay; conditions: relative to tetrahydrobiopterin = 100
Sequence of Tyrosine hydroxylase (P07101 whole entry): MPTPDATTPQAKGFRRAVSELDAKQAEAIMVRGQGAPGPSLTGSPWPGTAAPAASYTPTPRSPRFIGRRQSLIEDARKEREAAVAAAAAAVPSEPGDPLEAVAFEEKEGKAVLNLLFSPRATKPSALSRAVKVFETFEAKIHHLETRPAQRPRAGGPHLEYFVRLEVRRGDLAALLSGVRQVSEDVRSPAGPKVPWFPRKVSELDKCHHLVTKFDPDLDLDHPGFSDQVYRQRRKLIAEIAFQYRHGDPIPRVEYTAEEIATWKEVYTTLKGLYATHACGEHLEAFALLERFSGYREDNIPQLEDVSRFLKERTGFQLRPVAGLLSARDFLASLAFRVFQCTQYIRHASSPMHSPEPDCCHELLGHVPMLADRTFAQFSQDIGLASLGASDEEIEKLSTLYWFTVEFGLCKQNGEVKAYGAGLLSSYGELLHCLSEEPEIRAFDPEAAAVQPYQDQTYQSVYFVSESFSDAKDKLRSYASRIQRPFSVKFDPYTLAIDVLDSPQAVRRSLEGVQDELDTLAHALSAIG
Method: Tyrosine hydroxylate was partially purified through a 25-45% ammonium sulfate fraction. […] The enzyme was assayed by a modification of the method of Nagatsu, T., Levitt, M., and Udenfriend, S. (Anal. Biochem. 9, 122, (1964)) where the Dowex chromatography step was replaced by a charcoal extraction.

bovine liver DHFR = target: T2, bovine liver DHFR (Bos taurus, UniProt P00376); assay: Dihydrofolate reductase assay; conditions: for Dihydrofolate reductase V: 7,8-dihydro form, relative to 7,8-dihydrobiopterin = 100, bovine liver DHFR
T2 construct: bovine liver DHFR; from tissue; host or cells: bovine liver
T2 sequence (P00376 1-187): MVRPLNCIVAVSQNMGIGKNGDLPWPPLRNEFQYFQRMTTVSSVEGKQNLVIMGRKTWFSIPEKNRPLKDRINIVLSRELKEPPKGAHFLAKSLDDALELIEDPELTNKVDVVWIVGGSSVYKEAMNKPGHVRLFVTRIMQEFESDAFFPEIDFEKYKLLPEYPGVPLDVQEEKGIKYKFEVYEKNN
Method: These assays were carried out on the 7,8-dihydropterin analogs of the compounds of formula I which was tetrahydropterins. The 7,8-dihydropterinswere obtained commercially (in the case of dihydrobiopterin) or synthesized from the corresponding compound of formula I. Synthesis of 7,8-dihydropterins involved the combination of 0.27 μmole of a compound of formula I, 20 μg of horseradish peroxidase, 0.6 μmole of hydrogen peroxide in 0.1 ml of 0.5M potassium phosphate buffer, pH 7.5. After 3 min at room temperature, 10 μg of bovine liver catalase was added. The production of the 7,8-dihydropterin was verified by U.V. spectroscopy.
The assay was carried out with bovine liver DHFR using a modification of the method of Bailey and Ayling (J. Biol. Chem., 253, 1598 (1978)) where the desired dihydropterin replaced dihydrobiopterin, and the HPLC system used consisted of an anaerobic 0.1M acetic acid (with or without 10% acetonitrite) solvent on a 25 cm×4.6 mm Dupont TMS-Zorbax column. In our hands, dihydrobiopterin is reduced at a rate 2.5% that of the natural substrate dihydrofolate.

[2] = target: T3, Phenylalanine hydroxylase (Rattus norvegicus, UniProt P04176); assay: Phenylalanine hydroxylase cofactor assay; conditions: rat liver enzyme; relative to tetrahydrobiopterin = 100
T3 construct: Phenylalanine hydroxylase was prepared from rat liver; from tissue; host or cells: rat liver
T3 sequence (P04176 1-453): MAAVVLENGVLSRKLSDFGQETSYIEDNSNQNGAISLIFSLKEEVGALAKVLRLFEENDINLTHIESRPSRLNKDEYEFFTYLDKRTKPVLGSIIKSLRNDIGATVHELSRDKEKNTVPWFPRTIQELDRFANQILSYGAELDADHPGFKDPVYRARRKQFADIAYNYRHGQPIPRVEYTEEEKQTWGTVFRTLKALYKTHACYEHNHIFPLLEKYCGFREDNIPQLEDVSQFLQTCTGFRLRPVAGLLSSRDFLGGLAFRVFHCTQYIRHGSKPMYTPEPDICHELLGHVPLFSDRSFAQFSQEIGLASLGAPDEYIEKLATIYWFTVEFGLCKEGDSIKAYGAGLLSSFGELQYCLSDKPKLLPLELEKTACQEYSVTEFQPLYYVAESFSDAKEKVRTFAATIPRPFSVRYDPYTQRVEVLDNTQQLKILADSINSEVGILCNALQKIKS
Method: Phenylalanine hydroxylase was measured as described in Shiman, R. et al., (J. Biol. Chem. 254: 11300 (1979)) except that the product of the reaction (tyrosine) was measured fluorometrically using the method of Waalkes, T. P. and Udenfriend, S. (J. Lab. Clin. Med. 50: 733 (1957). Phenylalanine hydroxylase was prepared from rat liver using hydrophobic chromatography (Shiman, R. et al. (J. Biol. Chem. 254: 11,300 (1979)). The specific activity of the enzyme, using BH4 as the co-factor, was 1.0 μmol/mg protein per minute at 37°.

| Tryptophan hydroxylase Vmax (Tryptophan hydroxylase) [%] | Dihydropteridine reductase Vmax [1] [%] | Tyrosine hydroxylase Vmax (Tyrosine hydroxylase) [%] | Dihydrofolate reductase V (bovine liver DHFR) [%] | Phenylalanine hydroxylase Vmax [2] [%] | Rate of reduction by DHFR relative to dihydrofolate (bovine liver DHFR; relative to natural substrate dihydrofolate) [%] | SMILES |
| --- | --- | --- | --- | --- | --- | --- |
| 100 | 100 | 100 | 100 | 100 | – | C[C@H](O)[C@H](O)[C@H]1CNc2nc(N)[nH]c(=O)c2N1 [Tetrahydrobiopterin] |
| 54 | 295 | 124 | 800 | 79 | – | COCC1CNc2nc(N)[nH]c(=O)c2N1 (racemic) [6-Methoxymethyl-tetrahydropterin, (+-)-2-Amino-5,6,7,8-tetrahydro-6-methoxymethyl-4(3H)-pteridinone] |
| – | – | – | – | – | 2.5 | C[C@H](O)[C@H](O)C1=Nc2c(nc(N)[nH]c2=O)NC1 [7,8-Dihydrobiopterin] |
